Test results from patent publication US11534441B2, “MAP4K1 inhibitors” (Blueprint Medicines Corporation, priority 2020, dated 2022).

How the values were obtained:
expanded CD3+ T cells = assay: T cell enhancement of cytokines: IL2 measurement (HTRF) in expanded CD3+ T cells stimulated with anti-CD3/anti-CD28; assay type: cell-based, human; conditions: IL-2 measurement
Method: T cells are isolated from whole blood of healthy donors by immunomagnetic negative selection following manufacture's protocol (StemCell Technologies, human T cell isolation kit). Purity of isolated cells is assessed by flow cytometry and yields 95-98% CD3^+ T cells. For expansion of T cells, 1×10^6 cells/well are plated in serum free cell expansion media (ThermoFisher) containing 30 U of recombinant human IL2 (R&D) and stimulated with 25 ul of CD3/CD28 beads (Invitrogen) in 24 well plates for 3-4 days. T cells are then expanded in 175 cm flasks and maintained at a cell density of 1 to 2.5×10^6 cells/ml days by addition of ⅔ of fresh media every 2-3 days. After 10-14 days, cells are frozen in BamBanker freezing media (Thermo) and stored in liquid nitrogen.
For IL2 measurement, expanded CD3^+ T cells are dispensed at 100K cells/well (cultured in X-VIVO 10 Serum-free media) and are stimulated with plate-bound anti-CD3 and soluble anti-CD28 in the presence of vehicle or compound of the disclosure at various concentrations for 24 h. As outlined in the manufacturer's protocol (Cisbio), 16 μL of conditioned media is transferred to a white 384-well low volume plate. Following a 24 h incubation with the anti-IL2 antibodies, the homogenous time resolved fluorescence (HTRF) is measured.

MAP4K1 (HPK1) = MAP4K1 (HPK1) (Homo sapiens (Human), UniProt Q92918); assay: MAP4K1 (HPK1) biochemical enzymatic activity, electrophoretic mobility shift (EZReader 2), ATP at APPKM (26 μM)
Method in brief: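 Phosphorylated and unphosphorylated peptide were separated electrophoretically, and the product/substrate peak ratio served as readout. Reactions held 0.1-15 nM HPK1, 1.5 μM fluorescent peptide and 26 μM ATP (apparent Km) in pH 7.5 HEPES buffer with MgCl2 and DTT. Compounds were tested as 4-fold, 10-point dilutions in 1% DMSO for 60-180 min at 25° C, then quenched with EDTA.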

[1] = Homo sapiens, T-cell, class designation
[2] = Homo sapiens, T-cell, numeric value

Sequence of MAP4K1 (HPK1) (Q92918 whole entry): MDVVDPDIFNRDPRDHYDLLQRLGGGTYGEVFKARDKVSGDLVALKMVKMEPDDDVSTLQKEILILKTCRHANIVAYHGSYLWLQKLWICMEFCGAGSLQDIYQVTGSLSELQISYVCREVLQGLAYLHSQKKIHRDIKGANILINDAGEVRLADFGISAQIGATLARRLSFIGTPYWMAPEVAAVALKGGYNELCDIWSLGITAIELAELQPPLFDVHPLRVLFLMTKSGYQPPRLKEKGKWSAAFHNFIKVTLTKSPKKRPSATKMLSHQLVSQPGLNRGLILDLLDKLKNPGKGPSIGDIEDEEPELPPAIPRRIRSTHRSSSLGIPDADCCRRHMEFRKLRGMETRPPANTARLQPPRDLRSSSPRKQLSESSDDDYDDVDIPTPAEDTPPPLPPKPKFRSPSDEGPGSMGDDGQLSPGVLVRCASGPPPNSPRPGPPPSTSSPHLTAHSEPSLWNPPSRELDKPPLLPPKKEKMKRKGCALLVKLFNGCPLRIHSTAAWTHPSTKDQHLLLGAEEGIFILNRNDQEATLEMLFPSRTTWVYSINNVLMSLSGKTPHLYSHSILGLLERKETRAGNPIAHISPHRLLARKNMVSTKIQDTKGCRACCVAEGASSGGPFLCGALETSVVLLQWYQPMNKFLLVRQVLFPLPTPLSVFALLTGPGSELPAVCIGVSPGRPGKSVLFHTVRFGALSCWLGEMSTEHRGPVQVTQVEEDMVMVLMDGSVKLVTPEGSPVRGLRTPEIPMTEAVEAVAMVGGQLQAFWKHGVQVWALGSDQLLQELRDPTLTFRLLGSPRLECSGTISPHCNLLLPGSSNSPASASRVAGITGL

Row | Compound | EC50 (expanded CD3+ T cells; class designation) | EC50 (expanded CD3+ T cells; numeric value) | IC50 (MAP4K1 (HPK1); class designation) | IC50 (MAP4K1 (HPK1); numeric value) | EC50 (expanded CD3+ T cells; [1]) | EC50 (expanded CD3+ T cells; [2])
1 | CC[C@@](C)(N)c1cnc(OCC(F)(F)F)c2cnc(Nc3ccc4c(n3)[C@@H](C)[C@H](C)OC4=O)cc12 (single isomer, unassigned) [Compound 182] | 35.1 to 45 nM | 38.8 nM | 1.1 to 10 nM | 2.92 nM | – | –
2 | COCC(C)(N)c1cnc(OC2CC2)c2cnc(Nc3ccc4c(n3)[C@@H](C)[C@H](C)OC4=O)cc12 (single isomer, unassigned) [Compound 184, (7S,8R)-2-((5-((R)-2-Amino-1-methoxypropan-2-yl)-8-cyclopropoxy-2,7-naphthyridin-3-yl)amino)-7,8-dimethyl-7,8-dihydro-5H-pyrano[4,3-b]pyridin-5-one or (7S,8R)-2-((5-((S)-2-amino-1-methoxypropan-2-yl)-8-cyclopropoxy-2,7-naphthyridin-3-yl)amino)-7,8-dimethyl-7,8-dihydro-5H-pyrano[4,3-b]pyridin-5-one] | < 35 nM | 33.4 nM | < 0.3 nM | 0.27 nM | – | –
3 | COc1ncc(C(C)(C)N)c2cc(Nc3ccnc(C(C)(C)C)n3)ncc12 [Compound 3, 5-(2-Aminopropan-2-yl)-N-(2-(tert-butyl)pyrimidin-4-yl)-8-methoxy-2,7-naphthyridin-3-amine] | – | – | – | 0.36 nM | > 55 nM | 108 nM
4 | COc1ccc(C(C)(C)N)c2cc(Nc3ccnc(C(C)(C)F)n3)ncc12 [Compound 5, 5-(2-Aminopropan-2-yl)-N-(2-(2-fluoropropan-2-yl)pyrimidin-4-yl)-8-methoxyisoquinolin-3-amine] | – | – | 0.31 to 1 nM | 0.37 nM | 35.1 to 45 nM | 37.1 nM
5 | COc1ncc(C(C)(C)N)c2cc(Nc3ccnc(C(C)(C)F)n3)ncc12 [Compound 7] | – | – | 0.31 to 1 nM | 0.91 nM | < 35 nM | 21.7 nM
6 | COc1ncc(C(C)(C)N)c2cc(Nc3ccc4c(n3)CCNC4=O)ncc12 [Compound 11] | – | – | 0.31 to 1 nM | 0.33 nM | < 35 nM | 10.9 nM
7 | COc1ncc(C(C)(C)N)c2cc(Nc3ccc4c(n3)CCOC4=O)ncc12 [Compound 12] | – | – | 0.31 to 1 nM | 0.31 nM | < 35 nM | 11 nM
8 | CC[C@H](C)n1nc(Nc2cc3c(C(C)(C)N)cnc(OC)c3cn2)ccc1=O [Compound 14] | 45.1 to 55 nM | 51 nM | 0.31 to 1 nM | 0.64 nM | – | –
9 | CC[C@@H](C)n1nc(Nc2cc3c(C(C)(C)N)cnc(OC)c3cn2)ccc1=O [Compound 15] | – | – | 0.31 to 1 nM | – | < 35 nM | 30.9 nM
10 | CC[C@H](C)c1nc(Nc2cc3c(C(C)(C)N)cnc(OC)c3cn2)ccc1C#N [Compound 19] | < 35 nM | 27.3 nM | < 0.3 nM | 0.3 nM | – | –
11 | CC[C@H](C)c1nc(Nc2cc3c(C(C)(C)N)cnc(OC)c3cn2)cnc1C#N [Compound 20] | 45.1 to 55 nM | 51.1 nM | 0.31 to 1 nM | 0.73 nM | – | –
12 | CC[C@@H](C)c1nc(Nc2cc3c(C(C)(C)N)cnc(OC)c3cn2)cnc1C#N [Compound 21] | 45.1 to 55 nM | 48.7 nM | 0.31 to 1 nM | 0.85 nM | – | –
13 | COc1ncc(C(C)(C)N)c2cc(Nc3ccc4c(n3)C(C)(C)OC4=O)ncc12 [Compound 26] | – | – | 0.31 to 1 nM | 0.55 nM | < 35 nM | 14 nM
14 | COc1ncc(C(C)(C)N)c2cc(Nc3ccc(C#N)c(C(C)(C)F)n3)ncc12 [Compound 28] | – | – | 0.31 to 1 nM | 0.67 nM | < 35 nM | 31.4 nM
15 | COc1ncc(C(C)(C)N)c2cc(Nc3ccc4c(n3)CC3(CC3)OC4=O)ncc12 [Compound 33] | – | – | < 0.3 nM | 0.13 nM | < 35 nM | 9.3 nM
16 | COc1ncc(C(C)(C)N)c2cc(Nc3ccc4c(n3)CC(C)(C)CC4=O)ncc12 [Compound 34, 2-((5-(2-Aminopropan-2-yl)-8-methoxy-2,7-naphthyridin-3-yl)amino)-7,7-dimethyl-7,8-dihydroquinolin-5 (6H)-one] | – | – | < 0.3 nM | 0.24 nM | 35.1 to 45 nM | 45.6 nM
17 | CNc1ncc(C(C)(C)N)c2cc(Nc3ccc4c(n3)CC(C)(C)OC4=O)ncc12 [Compound 35] | < 35 nM | 23.5 nM | 0.31 to 1 nM | 0.41 nM | – | –
18 | COc1ncc(C(C)(C)N)c2cc(Nc3ccc4c(n3)CC(C)(C)OC4=O)ncc12 [Compound 36] | – | – | < 0.3 nM | 0.17 nM | < 35 nM | 15.3 nM
